Here are results for 12 molecules from article PMC6491434 (Scientific Reports, 2019).

Bounds are passed on as bounds.

What is called viability is a read-out of living cells in per cent, often relative to untreated cells.

In one series the target is CK1. The series is described as follows: protein kinase catalytic activity assay, CK1. It counts as biochemical. The conditions noted are these: read-out: IC50 towards CK1.
The target of another series is T1, CDK9/T (Homo sapiens, UniProt P50750).
T1 construct: made in house
T1 sequence (P50750 whole entry, species assumed): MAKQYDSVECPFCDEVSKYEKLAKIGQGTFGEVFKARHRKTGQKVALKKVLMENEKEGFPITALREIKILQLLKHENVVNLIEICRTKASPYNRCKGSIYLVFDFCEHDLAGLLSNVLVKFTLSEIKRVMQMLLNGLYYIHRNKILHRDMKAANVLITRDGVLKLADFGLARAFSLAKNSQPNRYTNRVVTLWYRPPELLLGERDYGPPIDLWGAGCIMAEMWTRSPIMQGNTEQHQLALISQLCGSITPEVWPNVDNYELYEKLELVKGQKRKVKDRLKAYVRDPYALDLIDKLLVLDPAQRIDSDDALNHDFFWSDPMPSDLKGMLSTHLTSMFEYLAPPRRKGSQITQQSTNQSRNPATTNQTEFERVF
T1 sequence (O60563 whole entry partner, species assumed): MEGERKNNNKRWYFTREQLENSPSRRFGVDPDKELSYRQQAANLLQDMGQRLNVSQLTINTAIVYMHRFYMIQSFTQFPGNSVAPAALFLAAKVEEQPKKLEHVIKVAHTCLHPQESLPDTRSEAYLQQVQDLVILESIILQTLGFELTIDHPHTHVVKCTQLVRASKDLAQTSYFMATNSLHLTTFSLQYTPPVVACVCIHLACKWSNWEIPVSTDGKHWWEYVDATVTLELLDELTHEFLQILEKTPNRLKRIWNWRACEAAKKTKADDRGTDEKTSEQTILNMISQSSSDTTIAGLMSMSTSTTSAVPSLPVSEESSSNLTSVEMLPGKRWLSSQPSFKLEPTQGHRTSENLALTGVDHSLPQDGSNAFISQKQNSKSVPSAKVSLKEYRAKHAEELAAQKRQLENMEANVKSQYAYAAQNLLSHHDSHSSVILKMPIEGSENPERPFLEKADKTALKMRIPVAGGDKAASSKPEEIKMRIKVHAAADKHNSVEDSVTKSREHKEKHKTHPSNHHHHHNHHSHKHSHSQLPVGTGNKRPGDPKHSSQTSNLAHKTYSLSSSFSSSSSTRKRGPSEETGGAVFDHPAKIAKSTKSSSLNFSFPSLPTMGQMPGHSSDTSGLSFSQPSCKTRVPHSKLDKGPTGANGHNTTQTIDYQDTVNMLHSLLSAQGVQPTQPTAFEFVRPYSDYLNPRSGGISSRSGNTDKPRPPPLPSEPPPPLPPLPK
Kind of series: protein kinase catalytic activity assay, CDK9/cyclin T. The conditions noted are these: read-out: IC50 towards CDK9/T. The class given is biochemical.

In series [1] the target is T2, ABCB4-I541F (Homo sapiens, UniProt P21439, I541F). The series is described as follows: ABCB4-mediated phosphatidylcholine secretion, HEK cells expressing ABCB4-I541F. It counts as cell-based. More on the design: wild type (WT) ABCB4, isoform A (NM_000443.3), into pcDNA3 vector; expressed in transfected cells; host or cells: HEK-293 (immunoblot, PC secretion). The note with it: 25 µM, vehicle 7.1 ± 0.8%. As to the method:
(§1) Cyclosporin A (CsA) was from Santa Cruz Biotechnologies (Dallas, TX). […] Each compound was solubilized in dimethylsulfoxide (DMSO) as 1000X concentrated stock solutions in order to treat cells with 5 µM to 100 µM final concentrations, using DMSO as control vehicle at the same dilution (0.1% DMSO for all conditions). The cells were treated 24 hours post-transfection with these drugs during 16 hours, except for the viability assays for which cells were treated during three days. After drug treatment, cells were used for immunoanalyses, cell viability assays or PC secretion assays.
(§2) HEK cells were seeded in 0.01% poly-L-lysine (Sigma) pre-coated 6-well plates of 10 cm² area per well (1.3 × 10^6 cells per well). After transient transfection of the empty vector (control), plasmids encoding ABCB4-WT or its variants, cells were incubated during 24 hours at 37 °C in serum-free medium supplemented with 0.5 mM sodium taurocholate (Sigma) and 0.02% fatty acid–free bovine serum albumin (Sigma). Then, the secreted PC was quantified from the collected media using a fluoro-enzymatic assay previously described. Each condition was analysed in triplicate, after background subtraction, and results were normalized to the expression levels of ABCB4 determined by immunoblots of the corresponding cell lysates.

The next series deals with T3, CDK5/p25 (Homo sapiens, UniProt Q00535).
T3 construct: made in house
T3 sequence (Q00535 whole entry, species assumed): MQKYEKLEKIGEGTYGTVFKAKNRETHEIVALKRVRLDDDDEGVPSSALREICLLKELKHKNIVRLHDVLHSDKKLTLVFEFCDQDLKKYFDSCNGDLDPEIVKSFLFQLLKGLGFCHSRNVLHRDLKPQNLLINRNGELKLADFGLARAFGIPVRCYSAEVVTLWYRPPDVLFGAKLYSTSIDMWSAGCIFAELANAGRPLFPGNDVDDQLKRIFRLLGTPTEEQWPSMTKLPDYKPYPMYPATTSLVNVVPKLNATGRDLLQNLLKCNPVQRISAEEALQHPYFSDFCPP
T3 sequence (Q15078 99-307 partner limits assumed, species assumed): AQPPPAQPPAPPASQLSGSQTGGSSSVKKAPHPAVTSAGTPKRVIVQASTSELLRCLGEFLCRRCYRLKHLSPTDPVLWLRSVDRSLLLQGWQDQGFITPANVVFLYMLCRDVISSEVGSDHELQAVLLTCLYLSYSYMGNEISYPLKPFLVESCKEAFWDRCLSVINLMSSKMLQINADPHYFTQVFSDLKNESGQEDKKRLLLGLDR
The series is described as follows: protein kinase catalytic activity assay, CDK5/p25. The class given is biochemical. The note with it: read-out: IC50 towards CDK5/p25.

Series [2] addresses T4, ABCB4-WT (Homo sapiens, UniProt P21439).
T4 construct: wild type (WT) ABCB4, isoform A (NM_000443.3), into pcDNA3 vector; expressed in transfected cells; host or cells: HEK-293
The series is described as follows: ABCB4-mediated phosphatidylcholine secretion, HEK cells expressing ABCB4-WT. The note with it: from dose-response curves of Fig. 4C, read-out: IC50 (µM) (min-max) on the PC secretion activity of ABCB4-WT. It counts as cell-based. As to the method: as §1, §2

The target of another series is T5, ABCB4-I490T (Homo sapiens, UniProt P21439, I490T).
T5 construct: wild type (WT) ABCB4, isoform A (NM_000443.3), into pcDNA3 vector; expressed in transfected cells; host or cells: HepG2
T5 sequence (P21439 1-1279 isoform P21439-2 I490T): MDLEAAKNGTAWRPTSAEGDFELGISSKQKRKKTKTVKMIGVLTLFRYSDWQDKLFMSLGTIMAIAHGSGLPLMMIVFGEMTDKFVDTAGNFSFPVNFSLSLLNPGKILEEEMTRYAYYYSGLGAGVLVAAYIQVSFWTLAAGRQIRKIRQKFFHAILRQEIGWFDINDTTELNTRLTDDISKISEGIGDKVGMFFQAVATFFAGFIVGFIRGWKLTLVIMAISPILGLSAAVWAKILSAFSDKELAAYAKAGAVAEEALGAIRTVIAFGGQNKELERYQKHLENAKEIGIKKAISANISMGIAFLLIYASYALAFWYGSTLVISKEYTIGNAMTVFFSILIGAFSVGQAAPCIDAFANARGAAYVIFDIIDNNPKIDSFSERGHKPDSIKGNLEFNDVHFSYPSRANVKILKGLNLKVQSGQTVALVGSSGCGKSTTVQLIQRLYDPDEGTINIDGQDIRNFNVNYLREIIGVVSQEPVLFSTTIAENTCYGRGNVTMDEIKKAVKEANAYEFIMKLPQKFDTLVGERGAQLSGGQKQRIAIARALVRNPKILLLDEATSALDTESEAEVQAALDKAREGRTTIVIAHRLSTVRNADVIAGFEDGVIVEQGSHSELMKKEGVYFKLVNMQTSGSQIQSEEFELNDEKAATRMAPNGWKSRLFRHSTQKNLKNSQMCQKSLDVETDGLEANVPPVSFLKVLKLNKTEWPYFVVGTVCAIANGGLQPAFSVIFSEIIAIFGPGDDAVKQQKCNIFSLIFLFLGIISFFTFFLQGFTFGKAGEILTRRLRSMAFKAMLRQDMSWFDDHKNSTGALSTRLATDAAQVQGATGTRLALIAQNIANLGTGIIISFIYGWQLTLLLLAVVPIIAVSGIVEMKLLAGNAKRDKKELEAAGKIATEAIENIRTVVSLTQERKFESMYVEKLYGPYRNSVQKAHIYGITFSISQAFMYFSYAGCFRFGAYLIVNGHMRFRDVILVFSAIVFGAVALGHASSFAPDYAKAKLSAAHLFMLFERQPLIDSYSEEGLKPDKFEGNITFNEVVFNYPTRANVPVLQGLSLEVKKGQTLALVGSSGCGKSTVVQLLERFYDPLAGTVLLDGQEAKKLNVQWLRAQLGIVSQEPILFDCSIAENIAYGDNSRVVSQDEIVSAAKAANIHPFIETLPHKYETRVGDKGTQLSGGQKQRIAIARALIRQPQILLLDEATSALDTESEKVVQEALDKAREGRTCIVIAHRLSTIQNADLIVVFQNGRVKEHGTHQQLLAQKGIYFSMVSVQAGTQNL
Kind of series: Canalicular localisation of ABCB4-I490T by indirect immunofluorescence in HepG2 cells. The class given is cell-based. The conditions noted are these: 25 µM.

The next series has as its target T6, CDK2/A (Homo sapiens, UniProt P24941).
T6 construct: made in house
The series is described as follows: protein kinase catalytic activity assay, CDK2/cyclin A. The note with it: read-out: IC50 towards CDK2/A. The class given is biochemical.

The target in series [3] is T2, ABCB4-I541F. Kind of series: Maturation of ABCB4-I541F by immunoblot in HEK cells. More on the design: wild type (WT) ABCB4, isoform A (NM_000443.3), into pcDNA3 vector; expressed in transfected cells; host or cells: HEK-293 (immunoblot, PC secretion). It counts as cell-based. The note with it: 100 µM, 16 hours. As to the method: For transient transfection of HEK cells, they were seeded at subconfluent levels in the adequate tissue culture wells at least six hours before transfection. Turbofect (Thermo Fisher scientific) was used at a ratio of reagent:DNA of 2:1 according to manufacturer’s instructions. For transient transfection of HepG2 cells, subconfluent cultures were seeded in the adequate culture wells 24 hours before transfection. Lipofectamine 3000 (Thermo Fisher Scientific) was used at a ratio of reagent:DNA of 1.5:1 according to manufacturer’s instructions. Cell treatments and processing for further analyses were performed at least 16 hours post-transfection.
as §1
Western blots and indirect immunofluorescence were performed as previously described[9],[50]. […] Signals were detected with ECL prime western blotting detection reagent (GE Healthcare, Velizy-Villacoublay, France) and quantified in the linear range of detection using ImageJ 1.50i software (U.S. National Institutes of Health, Bethesda, MD).
(In western blotting, separated proteins are transferred to a membrane and probed.)

Another series has as its target T7, ABCB4-L556R (Homo sapiens, UniProt P21439, L556R).
T7 construct: wild type (WT) ABCB4, isoform A (NM_000443.3), into pcDNA3 vector; expressed in transfected cells; host or cells: HepG2
Kind of series: Canalicular localisation of ABCB4-L556R by indirect immunofluorescence in HepG2 cells. It counts as cell-based. The note with it: 25 µM.

In another series the test system is HEK cells. Kind of series: Cell viability, MTT assay. The conditions noted are these: three days. The procedure:
as §1
(§3) Cell viability was assessed by the conversion of MTT (3-[4,5-dimethylthiazol-2-yl]-2,5 diphenyl tetrazolium bromide) into formazan crystals by living cells, as described. In brief, HEK cells were seeded in 96-well plates in triplicate for each tested condition, including controls (no cells, no treatment, treatment with vehicle). […] These conditions were optimized in order to maintain the absorbance at 540 nm of the blanks below 0.1 OD unit (negative controls) and the absorbance at 540 nm for untreated cells between 1.0 and 1.3 OD units (positive controls). Then culture media were gently washed out, cells were lysed in 100 µL of pure DMSO and absorbance at 540 nm was measured using a multiplate cytofluorimeter SpectraFluor from Tecan (Männedorf, Switzerland). Cell viability was calculated for each triplicate after background subtraction and expressed as percentage of the mean for cells treated with vehicle only.

Series [4] is described as follows: Cell viability, MTT assay. The conditions noted are these: human. As to the method:
as §1, §3
A general note: Formazan colour is commonly taken as a measure of viable cells.

Series [5] has as its target T4, ABCB4-WT. More on the design: method as in PMID 24806754. The note with it: cited from earlier work.
Series [6] has as its target T2, ABCB4-I541F. More on the design: wild type (WT) ABCB4, isoform A (NM_000443.3), into pcDNA3 vector; expressed in transfected cells; host or cells: HEK-293 (immunoblot, PC secretion); HepG2 (immunofluorescence); method as in PMID 22184139, PMID 19185004. The note with it: cited from earlier work.

T2 sequence (P21439 1-1279 isoform P21439-2 I541F): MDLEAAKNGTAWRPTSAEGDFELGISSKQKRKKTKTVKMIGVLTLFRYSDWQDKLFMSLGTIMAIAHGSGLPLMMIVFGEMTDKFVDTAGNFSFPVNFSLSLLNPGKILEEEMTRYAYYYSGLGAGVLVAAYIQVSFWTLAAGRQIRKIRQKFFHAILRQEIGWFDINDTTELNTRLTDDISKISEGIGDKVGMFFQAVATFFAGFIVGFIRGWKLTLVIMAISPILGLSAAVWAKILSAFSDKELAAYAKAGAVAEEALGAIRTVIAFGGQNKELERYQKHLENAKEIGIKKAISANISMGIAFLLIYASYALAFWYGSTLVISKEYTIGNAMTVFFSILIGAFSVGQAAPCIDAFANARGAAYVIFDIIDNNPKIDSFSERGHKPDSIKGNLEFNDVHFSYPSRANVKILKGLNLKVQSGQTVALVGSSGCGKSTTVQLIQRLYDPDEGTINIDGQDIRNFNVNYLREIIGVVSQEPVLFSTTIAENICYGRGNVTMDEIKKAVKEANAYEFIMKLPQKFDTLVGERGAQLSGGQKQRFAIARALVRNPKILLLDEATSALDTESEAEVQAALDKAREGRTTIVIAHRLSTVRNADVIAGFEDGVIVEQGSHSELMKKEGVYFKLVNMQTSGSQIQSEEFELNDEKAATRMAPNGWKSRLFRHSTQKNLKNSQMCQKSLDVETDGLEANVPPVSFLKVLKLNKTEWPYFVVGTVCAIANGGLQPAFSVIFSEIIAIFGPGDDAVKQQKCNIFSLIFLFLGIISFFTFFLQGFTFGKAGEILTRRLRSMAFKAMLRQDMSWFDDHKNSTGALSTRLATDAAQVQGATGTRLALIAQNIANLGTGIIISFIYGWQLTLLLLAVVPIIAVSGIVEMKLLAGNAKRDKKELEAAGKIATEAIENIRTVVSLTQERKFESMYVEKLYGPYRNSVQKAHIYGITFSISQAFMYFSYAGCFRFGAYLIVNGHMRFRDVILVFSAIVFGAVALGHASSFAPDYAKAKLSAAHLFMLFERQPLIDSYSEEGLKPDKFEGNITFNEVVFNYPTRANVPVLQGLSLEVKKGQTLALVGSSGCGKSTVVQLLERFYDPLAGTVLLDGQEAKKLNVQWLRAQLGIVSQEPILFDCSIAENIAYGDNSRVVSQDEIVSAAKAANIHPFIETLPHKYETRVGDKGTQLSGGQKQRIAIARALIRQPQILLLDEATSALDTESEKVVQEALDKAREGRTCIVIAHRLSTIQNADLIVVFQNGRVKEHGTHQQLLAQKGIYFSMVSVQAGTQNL

In the case of `CC[C@@H](Nc1nc(NCc2ccccc2)c2ncn(C(C)C)c2n1)C(=O)O` [M3, reference compound], the IC50 at CK1 and at CDK9/T was over 33 µM in each case.
With `CC(Nc1nc(NCc2ccccc2)c2ncn(C(C)C)c2n1)C(=O)O` (stereo not drawn) [MRT2-163], on CK1, the IC50 was determined as 20 µM.
Turning to `CC(C)n1cnc2c(NCc3ccccc3)nc(N[C@@H](CO)C(=O)O)nc21` [MRT2-164], the values for the IC50 at CK1 and on CDK9/T were 28 µM and 17 µM, respectively.
Take `CC[C@@H](Nc1nc(NCc2cccc(F)c2)c2ncn(C3CCCC3)c2n1)C(=O)O` [MRT2-235]: the “PC secretion activity of ABCB4-I541F (% of ABCB4-WT activity)” value at ABCB4-I541F [1] is listed as 19.0 ± 3.4%. Besides, the IC50 at CK1 came to 7 µM; on CDK5/p25 it was 8.3 µM; at ABCB4-WT [2], 21 µM; on CDK2/A, 5.9 µM; at CDK9/T, 7 µM. Moreover, on ABCB4-I490T, the “relocalisation of ABCB4-I490T at bile canaliculi” value (“relocalisation of ABCB4-I490T” below) is on record as “partially relocalised at bile canaliculi”. Also, the “maturation of ABCB4-I541F (expression of the mature form)” value (shortened to “maturation of ABCB4-I541F”) at ABCB4-I541F [3] is “significantly increase the expression of a mature form of ABCB4-I541F”. Moreover, the “relocalisation of ABCB4-L556R at bile canaliculi” value (“relocalisation of ABCB4-L556R” below) on ABCB4-L556R is “partially relocalised at bile canaliculi”.
`CC[C@@H](Nc1nc(NCc2cccc(Cl)c2)c2ncn(C3CCCC3)c2n1)C(=O)O` [MRT2-237]: the “PC secretion activity of ABCB4-I541F (% of ABCB4-WT activity)” value at ABCB4-I541F [1] is reported as 13.0 ± 3.5%. Also, the IC50 on CK1 was 3.33 µM; on CDK5/p25, 7.7 µM; on ABCB4-WT [2], 29.3 µM; at CDK2/A, 3.4 µM; at CDK9/T, 9 µM. The “relocalisation of ABCB4-I490T” value on ABCB4-I490T is “partially relocalised at bile canaliculi”. At ABCB4-I541F [3], the “maturation of ABCB4-I541F” value is given as “significantly increase the expression of a mature form of ABCB4-I541F”. The “relocalisation of ABCB4-L556R” value at ABCB4-L556R was “partially relocalised at bile canaliculi”.
Take `CC[C@@H](Nc1nc(NCc2cccc(C(F)(F)F)c2)c2ncn(C3CCCC3)c2n1)C(=O)O` [MRT2-239]: the IC50 at CK1 stood at 4 µM; on CDK5/p25, 11 µM; at CDK2/A it was 8 µM; at CDK9/T it was 20 µM. In addition, the “maturation of ABCB4-I541F” value at ABCB4-I541F [3] is reported as “significantly increase the expression of a mature form of ABCB4-I541F”.
The like results for `CC[C@@H](Nc1nc(NCc2ccc(F)c(F)c2)c2ncn(C3CCCC3)c2n1)C(=O)O` [MRT2-241] were, in that order, 11 µM, 17 µM, 5.1 µM, 8 µM and “significantly increase the expression of a mature form of ABCB4-I541F”.
`CC[C@@H](Nc1nc(NCc2ccc(Cl)c(F)c2)c2ncn(C3CCCC3)c2n1)C(=O)O` [MRT2-243]: on ABCB4-I541F [1], the “PC secretion activity of ABCB4-I541F (% of ABCB4-WT activity)” value is reported as 22.5 ± 6.2%. The IC50 was 6.1 µM at CK1; 6.3 µM at CDK5/p25; 17.6 µM on ABCB4-WT [2]; 3 µM on CDK2/A; 5 µM at CDK9/T. Besides, the “relocalisation of ABCB4-I490T” value at ABCB4-I490T is recorded as “partially relocalised at bile canaliculi”. Further, the “maturation of ABCB4-I541F” value at ABCB4-I541F [3] was “significantly increase the expression of a mature form of ABCB4-I541F”. The “relocalisation of ABCB4-L556R” value on ABCB4-L556R was “partially relocalised at bile canaliculi”.
In the case of `CC[C@@H](Nc1nc(NCc2ccccc2)c2ncn(C3CCCC3)c2n1)C(=O)O` [MRT2-245], the IC50 came out at 17 µM at CK1, 15 µM at CDK5/p25, 6.3 µM at CDK2/A and 28 µM at CDK9/T. Also, the “maturation of ABCB4-I541F” value on ABCB4-I541F [3] is recorded as “significantly increase the expression of a mature form of ABCB4-I541F”.
With `CC[C@@H](Nc1nc(NCc2cccc(C(F)(F)F)c2)c2ncn(C(C)C)c2n1)C(=O)O` [MRT2-249], the IC50 was 5 µM at CK1, 27 µM on CDK5/p25, 9 µM at CDK2/A and over 33 µM at CDK9/T. Further, on ABCB4-I541F [3], the “maturation of ABCB4-I541F” value is listed as “significantly increase the expression of a mature form of ABCB4-I541F”.
In the case of `CC[C@H](CO)Nc1nc(NCc2ccccc2)c2ncn(C(C)C)c2n1` [Roscovitine, (R)-roscovitine], the “cell viability after treatment at 100 µM” value with HEK cells (100 µM, HEK cells expressing ABCB4-WT) was “massive cell death”. Further, the cytotoxicity entry in the series with HEK cells (increasing concentrations, HEK cells) is on record as “important dose-dependent cytotoxicity”. The same molecule gave a viability at 72 h, 25 µM in series [4] of under 60%.
Regarding Cyclosporin A [CsA], the “effect on the PC secretion activity of ABCB4” value on ABCB4-WT [5] is given as “inhibits the PC secretion activity of ABCB4”. In addition, the “rescue of maturation and canalicular localisation of ABCB4-I541F” value on ABCB4-I541F [6] was “partially rescued”.
